For experiment [1], the system named is HCT-116. Briefly: Inhibitory concentration against cell proliferation of human HCT116 cells. The experiment is classed as functional.
For experiment [2], the target named is ATP-dependent molecular chaperone HSC82 (Saccharomyces cerevisiae S288c, UniProt P15108). Briefly: Inhibitory concentration against ATPase activity of Hsp90 of Saccharomyces cerevisiae was determined by ATPase activity assay.
In experiment [3] the target is Heat shock protein HSP 90-alpha (Homo sapiens, UniProt P07900). Description: Inhibitory concentration against activity of Hsp90 was determined by fluorescence polarization (FP) assay. On the technique in general: In fluorescence polarisation assays a small probe gives low polarisation when free and higher when bound to something large.
For experiment [4], the system named is HCT-116. Briefly: Inhibitory concentration against cell proliferation of human HCT116 cell. The experiment is classed as functional.
[5] abbreviates: Homo sapiens, HCT-116, read-out: GI50.

Sequence of ATP-dependent molecular chaperone HSC82 (P15108 whole entry): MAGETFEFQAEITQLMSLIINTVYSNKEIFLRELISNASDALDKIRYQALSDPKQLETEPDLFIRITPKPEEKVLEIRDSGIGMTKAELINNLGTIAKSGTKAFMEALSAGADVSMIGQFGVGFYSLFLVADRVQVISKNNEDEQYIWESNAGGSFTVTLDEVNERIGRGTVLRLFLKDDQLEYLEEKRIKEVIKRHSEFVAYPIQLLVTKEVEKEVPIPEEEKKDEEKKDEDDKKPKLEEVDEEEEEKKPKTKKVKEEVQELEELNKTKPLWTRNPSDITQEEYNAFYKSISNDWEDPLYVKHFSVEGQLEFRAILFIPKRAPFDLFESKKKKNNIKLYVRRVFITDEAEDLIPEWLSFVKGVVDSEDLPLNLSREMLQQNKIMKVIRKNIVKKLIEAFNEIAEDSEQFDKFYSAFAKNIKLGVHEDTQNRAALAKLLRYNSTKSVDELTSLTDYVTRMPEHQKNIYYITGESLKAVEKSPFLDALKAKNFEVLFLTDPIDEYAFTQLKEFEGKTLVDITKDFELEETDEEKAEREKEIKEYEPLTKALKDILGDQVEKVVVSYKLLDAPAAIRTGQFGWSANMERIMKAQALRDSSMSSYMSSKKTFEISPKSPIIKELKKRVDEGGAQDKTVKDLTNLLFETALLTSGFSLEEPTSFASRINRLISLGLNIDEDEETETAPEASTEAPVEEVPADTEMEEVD

A word on the GI50: it is the concentration that inhibits growth by half. For orientation: IC50 means the concentration at which inhibition is half-maximal. A higher IC50 goes with weaker potency in that assay. `Cc1n[nH]c(-c2ccc(O)cc2O)c1-c1ccc2c(c1)OCCO2`: the concentration for 50% growth inhibition (GI50) in the experiment with HCT-116 [1] (setting [5]) amounted to 34800 nM. Moreover, the concentration for half-maximal inhibition (IC50) came out at 23000 nM in experiment [2] and 4730 nM in experiment [3].
Turning to `CCNC(=O)c1[nH]nc(-c2cc(Br)c(O)cc2O)c1-c1ccc(OC)cc1`, the 50% growth inhibitory concentration (GI50) in the experiment on HCT-116 [1] (setting [5]) is 938 nM. The same compound came in with a concentration for half-maximal inhibition (IC50) in experiment [2] of 390 nM.
In the same order, the values of `Cc1[nH]nc(-c2cc(Cl)c(O)cc2O)c1-c1ccc2c(c1)OCCO2` are 14900 nM and 650 nM.
In the same order, the values of `COc1ccc(-c2c(-c3ccc(O)cc3O)n[nH]c2C)cc1` are 33300 nM and 36900 nM.
With `COc1ccc(-c2c(C)n[nH]c2-c2cc(Br)c(O)cc2O)cc1`, the concentration for 50% growth inhibition (GI50) with HCT-116 [1] (setting [5]) is 6100 nM. Also, the 50% inhibitory concentration (IC50) in experiment [2] was found to be 1900 nM; in experiment [3], 62 nM.
Compound `CCNC(=O)c1[nH]nc(-c2cc(Cl)c(O)cc2O)c1-c1ccc(OC)cc1` had a concentration for half-maximal inhibition (IC50) in experiment [2] of 140 nM.
Regarding `COc1ccc(-c2c(-c3cc(Cl)c(O)cc3O)n[nH]c2C(=O)NC(C)C)cc1`, the 50% growth inhibitory concentration (GI50) in the experiment with HCT-116 [1] (setting [5]) was 1900 nM. Besides, the IC50 was 1500 nM in experiment [2] and 120 nM in experiment [3].
`COc1ccc(-c2c(-c3cc(Cl)c(O)cc3O)n[nH]c2C(N)=O)cc1`: the GI50 in the experiment on HCT-116 [1] (setting [5]) is 1100 nM. Further, the concentration for half-maximal inhibition (IC50) in experiment [2] was 420 nM; in experiment [3], 53 nM.
As to `COc1ccc(-c2c(C)n[nH]c2-c2cc(Cl)c(O)cc2O)cc1`, the GI50 in the experiment with HCT-116 [1] (setting [5]) was 6700 nM. The values for the concentration for half-maximal inhibition (IC50) in experiment [2] and in experiment [3] were 1700 nM and 150 nM, respectively.
With `CCc1cc(-c2n[nH]c(C)c2-c2ccc3c(c2)OCCO3)c(O)cc1O`, the 50% growth inhibitory concentration (GI50) in the experiment on HCT-116 [1] (setting [5]) came out at 5800 nM. The compound further yielded an IC50 in experiment [2] of 5700 nM.
In the case of `CNC(=O)c1[nH]nc(-c2cc(Cl)c(O)cc2O)c1-c1ccc(OC)cc1`, in the experiment on HCT-116 [1] (setting [5]), the GI50 was 680 nM. The IC50 came to 110 nM in experiment [2] and 39 nM in experiment [3].
`COc1ccc(-c2c(-c3cc(Cl)c(O)cc3O)n[nH]c2C(=O)O)cc1` showed a GI50 in the experiment on HCT-116 [1] of more than 80000 nM. The values for the half-inhibitory concentration (IC50) in experiment [2] and in experiment [3] were 2300 nM and 510 nM, respectively.
For `C[C@@H]1C[C@H]2O[C@@H]2/C=C\C=C\C(=O)Cc2c(Cl)c(O)cc(O)c2C(=O)O1` [RADICICOL], halving of growth with HCT-116 [4] (GI50) required 130 nM. In experiment [2], half-maximal inhibition (IC50) was put at 200 nM.
For the compound `C=CCNC1=C2C[C@@H](C)C[C@H](OC)[C@H](O)[C@@H](C)/C=C(\C)[C@H](OC(N)=O)[C@@H](OC)/C=C\C=C(/C)C(=O)NC(=CC1=O)C2=O` [TANESPIMYCIN], the concentration for 50% growth inhibition (GI50) in the experiment with HCT-116 [4] was found to be 160 nM. This compound also showed an IC50 in experiment [2] of 13400 nM.

For the origin of these results see ChEMBL document CHEMBL1140283, “Novel, potent small-molecule inhibitors of the molecular chaperone Hsp90 discovered through structure-based design” (J Med Chem, 2005).
